Legend:
PIK3CA (human) = PIK3CA (human) (UniProt P42336); assay: Enzyme Assay
PIK3CB (Human) = PIK3CB (Human) (UniProt P42338); assay: Enzyme Assay
PIK3CD (Human) = PIK3CD (Human) (UniProt O00329); assay: Cell-Based Assay; details: raji
PIK3CG (human) = PIK3CG (human) (UniProt P48736); assay: Enzyme Assay
Sequence of PIK3CG (human) (P48736 whole entry, looked up): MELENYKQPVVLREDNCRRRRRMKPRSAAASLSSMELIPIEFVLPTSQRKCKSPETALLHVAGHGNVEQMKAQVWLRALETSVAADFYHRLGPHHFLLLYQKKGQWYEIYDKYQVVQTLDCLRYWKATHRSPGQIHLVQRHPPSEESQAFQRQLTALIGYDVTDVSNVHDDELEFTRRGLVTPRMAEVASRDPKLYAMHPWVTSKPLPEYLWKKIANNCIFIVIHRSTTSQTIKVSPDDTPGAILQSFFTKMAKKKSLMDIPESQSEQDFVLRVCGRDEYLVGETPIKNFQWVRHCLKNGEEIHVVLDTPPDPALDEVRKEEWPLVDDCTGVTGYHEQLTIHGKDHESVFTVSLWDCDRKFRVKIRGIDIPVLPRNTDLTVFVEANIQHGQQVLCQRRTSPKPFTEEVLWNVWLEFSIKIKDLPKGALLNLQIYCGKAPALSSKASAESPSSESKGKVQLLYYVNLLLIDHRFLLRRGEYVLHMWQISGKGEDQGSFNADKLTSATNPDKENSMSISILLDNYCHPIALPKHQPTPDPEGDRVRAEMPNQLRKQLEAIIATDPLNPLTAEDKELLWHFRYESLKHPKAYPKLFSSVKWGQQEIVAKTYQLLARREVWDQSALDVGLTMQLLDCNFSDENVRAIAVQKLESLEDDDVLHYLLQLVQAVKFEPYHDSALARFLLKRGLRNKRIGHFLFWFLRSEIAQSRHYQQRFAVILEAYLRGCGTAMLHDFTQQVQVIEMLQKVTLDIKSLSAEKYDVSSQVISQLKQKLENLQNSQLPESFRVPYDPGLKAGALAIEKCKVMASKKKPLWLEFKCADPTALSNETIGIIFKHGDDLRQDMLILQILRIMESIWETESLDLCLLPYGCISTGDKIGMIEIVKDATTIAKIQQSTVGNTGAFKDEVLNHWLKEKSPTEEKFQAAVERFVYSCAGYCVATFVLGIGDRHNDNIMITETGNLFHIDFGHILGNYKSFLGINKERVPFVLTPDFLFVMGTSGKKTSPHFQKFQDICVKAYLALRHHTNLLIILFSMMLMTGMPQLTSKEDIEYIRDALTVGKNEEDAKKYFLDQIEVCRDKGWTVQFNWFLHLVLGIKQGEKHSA

Sequence of PIK3CD (Human) (O00329 whole entry, looked up): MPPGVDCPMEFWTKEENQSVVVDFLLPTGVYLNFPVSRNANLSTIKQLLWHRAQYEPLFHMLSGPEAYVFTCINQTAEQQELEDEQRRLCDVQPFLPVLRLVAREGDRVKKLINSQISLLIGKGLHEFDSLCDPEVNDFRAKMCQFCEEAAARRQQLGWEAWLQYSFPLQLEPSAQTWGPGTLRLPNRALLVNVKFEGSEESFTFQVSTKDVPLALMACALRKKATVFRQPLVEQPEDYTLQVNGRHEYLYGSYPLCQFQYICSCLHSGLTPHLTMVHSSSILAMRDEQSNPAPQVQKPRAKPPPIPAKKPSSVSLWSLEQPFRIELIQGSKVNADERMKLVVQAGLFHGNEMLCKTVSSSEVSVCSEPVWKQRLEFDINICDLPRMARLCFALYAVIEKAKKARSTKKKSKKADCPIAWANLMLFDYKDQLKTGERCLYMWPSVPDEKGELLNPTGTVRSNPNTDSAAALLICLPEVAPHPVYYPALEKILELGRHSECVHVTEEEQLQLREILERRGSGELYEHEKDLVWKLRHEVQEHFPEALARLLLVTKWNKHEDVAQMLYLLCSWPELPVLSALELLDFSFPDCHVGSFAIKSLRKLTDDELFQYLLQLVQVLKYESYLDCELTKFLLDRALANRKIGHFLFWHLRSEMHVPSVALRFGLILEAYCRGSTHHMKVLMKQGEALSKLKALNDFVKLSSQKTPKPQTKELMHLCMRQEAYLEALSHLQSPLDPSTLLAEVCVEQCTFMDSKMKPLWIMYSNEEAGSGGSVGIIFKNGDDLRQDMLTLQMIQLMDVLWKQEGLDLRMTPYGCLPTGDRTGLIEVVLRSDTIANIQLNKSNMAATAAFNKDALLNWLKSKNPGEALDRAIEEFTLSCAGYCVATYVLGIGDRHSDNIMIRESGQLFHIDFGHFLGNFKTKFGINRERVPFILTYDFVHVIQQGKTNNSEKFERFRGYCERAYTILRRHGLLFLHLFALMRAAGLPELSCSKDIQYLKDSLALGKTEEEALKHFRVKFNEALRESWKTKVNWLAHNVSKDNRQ
Sequence of PIK3CB (Human) (P42338 whole entry, looked up): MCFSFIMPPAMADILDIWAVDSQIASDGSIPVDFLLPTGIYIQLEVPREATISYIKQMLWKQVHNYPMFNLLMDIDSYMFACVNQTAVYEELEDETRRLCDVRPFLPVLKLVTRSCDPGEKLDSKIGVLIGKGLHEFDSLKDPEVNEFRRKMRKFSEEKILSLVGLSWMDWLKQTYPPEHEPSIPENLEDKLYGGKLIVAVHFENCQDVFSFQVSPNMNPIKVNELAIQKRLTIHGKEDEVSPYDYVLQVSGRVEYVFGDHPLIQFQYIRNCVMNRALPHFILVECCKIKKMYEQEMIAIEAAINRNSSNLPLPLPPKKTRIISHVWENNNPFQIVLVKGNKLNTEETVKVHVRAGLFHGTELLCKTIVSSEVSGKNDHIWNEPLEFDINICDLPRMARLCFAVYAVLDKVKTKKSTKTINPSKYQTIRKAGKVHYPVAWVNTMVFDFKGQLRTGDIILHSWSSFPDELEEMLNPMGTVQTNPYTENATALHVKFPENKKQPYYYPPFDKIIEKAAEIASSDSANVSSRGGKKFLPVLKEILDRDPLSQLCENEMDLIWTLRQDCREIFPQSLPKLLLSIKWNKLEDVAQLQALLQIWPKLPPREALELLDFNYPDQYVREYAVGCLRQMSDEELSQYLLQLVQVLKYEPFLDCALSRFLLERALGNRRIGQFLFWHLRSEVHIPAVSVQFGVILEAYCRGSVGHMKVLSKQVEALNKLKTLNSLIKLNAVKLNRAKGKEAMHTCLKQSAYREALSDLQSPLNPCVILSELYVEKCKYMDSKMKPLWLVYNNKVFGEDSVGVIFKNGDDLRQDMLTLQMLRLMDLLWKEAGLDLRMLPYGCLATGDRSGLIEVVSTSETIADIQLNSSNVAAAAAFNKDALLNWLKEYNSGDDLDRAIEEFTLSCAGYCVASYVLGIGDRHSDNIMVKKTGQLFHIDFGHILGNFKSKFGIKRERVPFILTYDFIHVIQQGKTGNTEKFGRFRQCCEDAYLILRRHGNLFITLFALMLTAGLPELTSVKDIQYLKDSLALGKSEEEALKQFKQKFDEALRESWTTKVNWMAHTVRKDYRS
Sequence of PIK3CA (human) (P42336 whole entry, looked up): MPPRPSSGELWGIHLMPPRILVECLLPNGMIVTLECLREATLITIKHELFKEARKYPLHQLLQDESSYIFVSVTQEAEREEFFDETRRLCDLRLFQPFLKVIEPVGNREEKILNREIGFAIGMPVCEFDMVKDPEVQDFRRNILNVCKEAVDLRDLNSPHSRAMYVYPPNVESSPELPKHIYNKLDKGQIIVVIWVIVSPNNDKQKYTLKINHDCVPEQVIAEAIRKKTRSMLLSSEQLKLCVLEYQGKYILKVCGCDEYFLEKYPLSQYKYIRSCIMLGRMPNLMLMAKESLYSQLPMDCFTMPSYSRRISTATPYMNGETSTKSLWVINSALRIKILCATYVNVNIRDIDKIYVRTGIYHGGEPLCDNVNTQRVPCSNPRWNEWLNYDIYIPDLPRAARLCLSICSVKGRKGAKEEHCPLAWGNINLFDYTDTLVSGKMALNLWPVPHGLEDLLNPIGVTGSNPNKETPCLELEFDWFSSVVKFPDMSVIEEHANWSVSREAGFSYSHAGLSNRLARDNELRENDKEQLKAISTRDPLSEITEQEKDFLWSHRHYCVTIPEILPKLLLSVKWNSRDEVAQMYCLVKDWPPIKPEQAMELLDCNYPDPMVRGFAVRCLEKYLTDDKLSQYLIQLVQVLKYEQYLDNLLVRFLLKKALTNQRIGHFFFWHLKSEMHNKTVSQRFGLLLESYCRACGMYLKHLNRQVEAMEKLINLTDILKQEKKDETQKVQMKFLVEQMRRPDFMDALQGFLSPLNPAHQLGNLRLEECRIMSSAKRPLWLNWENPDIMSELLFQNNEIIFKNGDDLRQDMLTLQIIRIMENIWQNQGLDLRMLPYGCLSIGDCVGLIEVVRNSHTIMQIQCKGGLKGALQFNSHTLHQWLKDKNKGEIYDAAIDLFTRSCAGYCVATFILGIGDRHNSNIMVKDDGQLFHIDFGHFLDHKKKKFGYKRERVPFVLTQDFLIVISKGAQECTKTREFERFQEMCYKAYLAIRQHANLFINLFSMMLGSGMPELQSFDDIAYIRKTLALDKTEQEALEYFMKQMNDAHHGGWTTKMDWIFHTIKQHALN

Row | SMILES | IC50 (PIK3CA (human)) [nM] | IC50 (PIK3CB (Human)) [nM] | IC50 (PIK3CD (Human)) [nM] | IC50 (PIK3CG (human)) [nM]
1 | COc1cc(-c2cccc3cc([C@H](C)NC(=O)c4ncc(C)nc4N)n(-c4ccccc4)c(=O)c23)ccn1 | ≥ 10000 | ≥ 10000 | 100 to 1000 | 
2 | C[C@H](NC(=O)c1c(N)oc2cccnc12)c1cc2cccc(Cl)c2c(=O)n1-c1ccccc1 | ≥ 10000 |  |  | 
3 | C[C@H](NC(=O)c1cnn2cccnc12)c1cc2cccc(Cl)c2c(=O)n1-c1ccccc1 | ≥ 10000 |  | 100 to 1000 | 
4 | C[C@H](NC(=O)c1nc(-c2cccc(NS(C)(=O)=O)c2)cnc1N)c1cc2cccc(Cl)c2c(=O)n1-c1ccccc1 |  | 100 to 1000 | < 100 | < 100
5 | C[C@H](NC(=O)c1c(N)nn2cccnc12)c1cc2cccc(/C=N\O)c2c(=O)n1-c1ccccc1 | ≥ 10000 | ≥ 10000 |  | 100 to 1000
6 | CC(C)NS(=O)(=O)c1cccc(-c2cnc(N)c(C(=O)N[C@@H](C)c3cc4cccc(Cl)c4c(=O)n3-c3ccccc3)n2)c1 |  | 100 to 1000 | < 100 | 100 to 1000
7 | C[C@H](NC(=O)c1nc(-c2cccc(NS(C)(=O)=O)c2)cnc1N)c1cc2cccc(Cl)c2c(=O)n1C1CC1 |  | 100 to 1000 | < 100 | < 100
8 | C[C@H](NC(=O)c1cnn2cccnc12)c1cc2cccc(C#CCNC(=O)[C@@H]3CCCO3)c2c(=O)n1-c1ccccc1 | 100 to 1000 | 100 to 1000 | < 100 | < 100
9 | CC(C)n1c([C@H](C)NC(=O)c2c(N)nn3cccnc23)cc2cccc(Cl)c2c1=O |  | 100 to 1000 | < 100 | 100 to 1000
10 | C[C@H](NC(=O)c1c(N)nn2cccnc12)c1cc2cccc(C#CCCNC(=O)[C@@H]3CCC(=O)O3)c2c(=O)n1-c1ccccc1 |  | ≥ 10000 | < 100 | 100 to 1000
11 | C[C@H](NC(=O)c1c(N)nn2cccnc12)c1cc2cccc(C(F)(F)F)c2c(=O)n1-c1ccccc1 | ≥ 10000 |  | < 100 | 100 to 1000
12 | Cc1cc(C)n2nc(N)c(C(=O)N[C@@H](C)c3cc4cccc(Cl)c4c(=O)n3-c3ccccc3)c2n1 |  | 100 to 1000 | < 100 | 100 to 1000
13 | C[C@H](NC(=O)c1c(N)nn2cccnc12)c1cc2cccc(C3CC3)c2c(=O)n1-c1ccccc1 | ≥ 10000 | ≥ 10000 | 100 to 1000 | 
14 | C[C@H](NC(=O)c1c(N)nn2cccnc12)c1cc2cccc(CO)c2c(=O)n1-c1ccccc1 | ≥ 10000 |  | 100 to 1000 | 100 to 1000
15 | C[C@H](NC(=O)c1c(N)nn2cccnc12)c1cc2ccsc2c(=O)n1-c1ccccc1 | ≥ 10000 |  | 100 to 1000 | 
16 | C[C@H](NC(=O)c1nc(-c2cccc(S(=O)(=O)NC3CC3)c2)cnc1N)c1cc2cccc(Cl)c2c(=O)n1-c1ccccc1 | ≥ 10000 |  | < 100 | 
17 | C[C@H](NC(=O)c1c(N)nn2cccnc12)c1cc2cccc(-c3cncs3)c2c(=O)n1-c1ccccc1 |  | ≥ 10000 | < 100 | 100 to 1000
18 | C[C@H](NC(=O)c1c(N)nn2cccnc12)c1cc2cccc(-c3ccccc3)c2c(=O)n1-c1ccccc1 |  | ≥ 10000 | 100 to 1000 | 100 to 1000
19 | COc1cccc2cc([C@H](C)NC(=O)c3c(N)nn4cccnc34)n(-c3ccccc3)c(=O)c12 | ≥ 10000 | ≥ 10000 | 100 to 1000 | 
20 | C[C@H](NC(=O)c1c(N)nn2cccnc12)c1cc2cccc(-c3cnn(C)c3)c2c(=O)n1-c1ccccc1 | ≥ 10000 | ≥ 10000 | < 100 | 100 to 1000

Row | SMILES | IC50 (PIK3CA (human)) [nM] | IC50 (PIK3CB (Human)) [nM] | IC50 (PIK3CD (Human)) [nM] | IC50 (PIK3CG (human)) [nM]
21 | CC(C)Oc1cc(-c2cccc3cc([C@H](C)NC(=O)c4c(N)nn5cccnc45)n(-c4ccccc4)c(=O)c23)ccn1 | ≥ 10000 |  | < 100 | 100 to 1000
22 | Cc1cnc(C(=O)N[C@@H](C)c2c(Br)c3cccc(Cl)c3c(=O)n2-c2ccccc2)c(N)n1 | ≥ 10000 | ≥ 10000 |  | 
23 | COc1cc(-c2cccc3cc([C@H](C)NC(=O)c4c(N)nn5ccc(C)nc45)n(-c4ccccc4)c(=O)c23)ccn1 |  | ≥ 10000 | < 100 | 100 to 1000
24 | C[C@H](NC(=O)c1nccnc1N)c1cc2cccc(-c3cnn(C)c3)c2c(=O)n1-c1ccccc1 | ≥ 10000 | ≥ 10000 | < 100 | 100 to 1000
25 | C[C@H](NC(=O)c1nc(-c2cccc(S(N)(=O)=O)c2)cnc1N)c1cc2cccc(Cl)c2c(=O)n1-c1ccccc1 |  | 100 to 1000 | 100 to 1000 | 100 to 1000
26 | CC(C)Oc1ccc(-c2cnc(N)c(C(=O)N[C@@H](C)c3cc4cccc(Cl)c4c(=O)n3-c3ccccc3)n2)cc1F |  | ≥ 10000 |  | 100 to 1000
27 | CC(=O)Nc1ccc(-c2cccc3cc([C@H](C)NC(=O)c4c(N)nn5cccnc45)n(-c4ccccc4)c(=O)c23)cc1 |  | ≥ 10000 | < 100 | 100 to 1000
28 | C[C@H](NC(=O)c1c(N)nn2cccnc12)c1cc2cccc(CNC[C@@H]3CCCO3)c2c(=O)n1-c1ccccc1 | ≥ 10000 | ≥ 10000 |  | 
29 | CC(C)Oc1ccc(-c2cnc(N)c(C(=O)N[C@@H](C)c3cc4cccc(Cl)c4c(=O)n3-c3ccccc3)n2)cn1 | ≥ 10000 | ≥ 10000 | 100 to 1000 | 
30 | COc1cccc2c(Br)c([C@H](C)NC(=O)c3c(N)nn4cccnc34)n(-c3ccccc3)c(=O)c12 | ≥ 10000 | ≥ 10000 |  | 100 to 1000
31 | C[C@H](NC(=O)c1c(N)nn2cccnc12)c1cc2cccc(C#N)c2c(=O)n1-c1ccccc1 | ≥ 10000 |  | < 100 | 100 to 1000
32 | C[C@H](NC(=O)c1c(N)nn2cccnc12)c1cc2cccc(C#CCNC(=O)c3ccc(C#N)o3)c2c(=O)n1-c1ccccc1 | 100 to 1000 |  | < 100 | 100 to 1000
33 | C[C@H](NC(=O)c1c(N)nn2cccnc12)c1cc2sccc2c(=O)n1-c1ccccc1 | ≥ 10000 |  | 100 to 1000 | 
34 | CNCc1cccc2cc([C@H](C)NC(=O)c3c(N)nn4cccnc34)n(-c3ccccc3)c(=O)c12 | ≥ 10000 | ≥ 10000 |  | ≥ 10000
35 | C[C@H](NC(=O)c1c(N)nn2cccnc12)c1cc2ccccc2c(=O)n1-c1ccccc1 | ≥ 10000 |  | 100 to 1000 | 100 to 1000
36 | COc1ccc(-c2cccc3cc([C@H](C)NC(=O)c4c(N)nn5cccnc45)n(-c4ccccc4)c(=O)c23)cn1 | ≥ 10000 | ≥ 10000 | < 100 | 100 to 1000
37 | C[C@H](NC(=O)c1nc(-c2cccc(NS(=O)(=O)C3CC3)c2)cnc1N)c1cc2cccc(Cl)c2c(=O)n1-c1ccccc1 |  | 100 to 1000 | < 100 | < 100
38 | CC(C)Oc1cc(-c2cccc3nc([C@H](C)NC(=O)c4c(N)nn5cccnc45)n(-c4ccccc4)c(=O)c23)ccn1 | ≥ 10000 |  | < 100 | 
39 | CC(=O)Nc1cccc(-c2cccc3cc([C@H](C)NC(=O)c4c(N)nn5cccnc45)n(-c4ccccc4)c(=O)c23)c1 |  | ≥ 10000 | < 100 | 100 to 1000
40 | COc1ccc(-c2cnc(N)c(C(=O)N[C@@H](C)c3cc4cccc(Cl)c4c(=O)n3-c3ccccc3)n2)cc1F | ≥ 10000 | ≥ 10000 |  | 

Row | SMILES | IC50 (PIK3CA (human)) [nM] | IC50 (PIK3CB (Human)) [nM] | IC50 (PIK3CD (Human)) [nM] | IC50 (PIK3CG (human)) [nM]
41 | C[C@H](NC(=O)c1nc(-c2cccc(S(=O)(=O)N(C)C)c2)cnc1N)c1cc2cccc(Cl)c2c(=O)n1-c1ccccc1 | ≥ 10000 |  | 100 to 1000 | 
42 | C[C@H](NC(=O)c1nc(-c2cccc(S(=O)(=O)N3CCCC3)c2)cnc1N)c1cc2cccc(Cl)c2c(=O)n1-c1ccccc1 | ≥ 10000 |  |  | 
43 | C[C@H](NC(=O)c1c(N)ncc2cccnc12)c1cc2cccc(N3CCOCC3)c2c(=O)n1-c1ccccc1 | ≥ 10000 | ≥ 10000 | < 100 | 100 to 1000
44 | C[C@H](NC(=O)c1c(N)nn2cccnc12)c1cc2cccc(Cl)c2c(=O)n1-c1ccc(F)cc1 |  | 100 to 1000 | < 100 | < 100
45 | CC(NC(=O)c1c(N)nn2cccnc12)c1cc2cccc(Cl)c2nc1-c1ccccc1 (centres undefined) | ≥ 10000 |  | < 100 | 
46 | COc1ncc(-c2cccc3cc([C@H](C)NC(=O)c4c(N)nn5cccnc45)n(-c4ccccc4)c(=O)c23)s1 | ≥ 10000 | ≥ 10000 |  | 100 to 1000
47 | Cc1ccn2ncc(C(=O)N[C@@H](C)c3cc4cccc(Cl)c4c(=O)n3-c3ccccc3)c2n1 | ≥ 10000 |  | 100 to 1000 | 
48 | C[C@H](NC(=O)c1c(N)nn2cccnc12)c1cc2cccc(C=O)c2c(=O)n1-c1ccccc1 | ≥ 10000 |  | 100 to 1000 | 
49 | COc1cc(-c2cccc3cc([C@H](C)NC(=O)c4c(N)nn5cccnc45)n(-c4cccc(F)c4)c(=O)c23)ccn1 |  | ≥ 10000 | 100 to 1000 | 100 to 1000
50 | Nc1nccnc1C(=O)N1CCC[C@H]1c1cc2cccc(Cl)c2c(=O)n1-c1ccccc1 | ≥ 10000 | ≥ 10000 |  | ≥ 10000
51 | C[C@H](NC(=O)c1c(N)nn2cccnc12)c1cc2cccc(OC(F)(F)F)c2c(=O)n1-c1ccccc1 | ≥ 10000 | ≥ 10000 |  | 
52 | C[C@H](NC(=O)c1c(N)nn2cccnc12)c1cc2cccc(-c3ccncc3)c2c(=O)n1-c1ccccc1 |  | ≥ 10000 | < 100 | 100 to 1000
53 | CC(C)c1ccn2nc(N)c(C(=O)N[C@@H](C)c3cc4cccc(Cl)c4c(=O)n3-c3ccccc3)c2n1 | ≥ 10000 |  | 100 to 1000 | 
54 | COc1cccc2c(C)c([C@H](C)NC(=O)c3c(N)nn4cccnc34)n(-c3ccccc3)c(=O)c12 | ≥ 10000 | ≥ 10000 |  | 100 to 1000
55 | CNS(=O)(=O)c1cccc(-c2cnc(N)c(C(=O)N[C@@H](C)c3cc4cccc(Cl)c4c(=O)n3-c3ccccc3)n2)c1 |  | 100 to 1000 | < 100 | 100 to 1000
56 | C[C@H](NC(=O)c1c(N)nn2cccnc12)c1cc2cccc(C#CCNC(=O)C3CCC(=O)C3)c2c(=O)n1-c1ccccc1 (some centres undefined) | 100 to 1000 |  | < 100 | < 100
57 | Cc1cnc(N)c(C(=O)N[C@@H](C)c2cc3cccc(Cl)c3c(=O)n2-c2ccccc2)n1 | ≥ 10000 |  | 100 to 1000 | 
58 | C[C@H](NC(=O)c1c(N)nn2cccnc12)c1cc2cccc(-c3ccn[nH]3)c2c(=O)n1-c1ccccc1 |  | ≥ 10000 | 100 to 1000 | 100 to 1000

— the Kinase Knowledgebase extract (Sharma et al. 2016)
